Data: ChEMBL document CHEMBL6134868, “Novel Aryl Sulfonium Modification on Vancomycin to Tackle MRSA and VRE In Vitro and In Vivo through Dual Enhanced Cell-Wall and Membrane Inhibition” (J Med Chem, 2025)
≈ marks a conversion by molar mass, not a printed value. Positions of bridges follow the written chain, without caps; N, C: chain ends. Non-standard residues stand in square brackets, D forms with d. Residues, ends and D or L forms follow the SMILES beside them. *: point of attachment. X1 = CC[C@H](C)CCCCC(=O)*; Dab = NCC[C@H](N)C(=O)O

Tests used:
Format in all cases: functional
Details in all cases: time 16-24 hrs
[1] = system: Staphylococcus aureus; assay: Antibacterial activity against vancomycin-intermediate Staphylococcus aureus Mu50 incubated for 16 to 24 hrs by broth microdilution assay
[2] = system: Staphylococcus aureus; assay: Antibacterial activity against methicillin-resistant Staphylococcus aureus USA300 LAC incubated for 16 to 24 hrs by broth microdilution assay
[3] = system: Enterococcus faecium; assay: Antibacterial activity against vancomycin-resistant Enterococcus faecium Efm-HS-0649 harboring VanA phenotype incubated for 16 to 24 hrs by broth microdilution assay
[4] = system: Enterococcus faecium; assay: Antibacterial activity against vancomycin-resistant Enterococcus faecium Efm-HS-08257 harboring VanM phenotype incubated for 16 to 24 hrs by broth microdilution assay
[5] = system: Enterococcus faecium; assay: Antibacterial activity against vancomycin-resistant Enterococcus faecium Efm-HS-vb01 harboring VanB phenotype incubated for 16 to 24 hrs by broth microdilution assay
[6] = system: Enterococcus faecium; assay: Antibacterial activity against vancomycin-resistant Enterococcus faecium Efm-HS-vb02 harboring VanB phenotype incubated for 16 to 24 hrs by broth microdilution assay
[7] = system: Escherichia coli; assay: Antibacterial activity against Escherichia coli AB1157 incubated for 16 to 24 hrs by broth microdilution assay
[8] = system: Acinetobacter baumannii; assay: Antibacterial activity against carbapenem-resistant Acinetobacter baumannii CRAB-1 clinical isolate incubated for 16 to 24 hrs by broth microdilution assay
[9] = system: Acinetobacter baumannii; assay: Antibacterial activity against Acinetobacter baumannii ATCC19606 incubated for 16 to 24 hrs by broth microdilution assay
[10] = system: Pseudomonas aeruginosa; assay: Antibacterial activity against Pseudomonas aeruginosa PAO1 incubated for 16 to 24 hrs by broth microdilution assay
[11] = system: Klebsiella pneumoniae; assay: Antibacterial activity against Klebsiella pneumoniae KP-1 incubated for 16 to 24 hrs by broth microdilution assay

| Structure (SMILES) | MIC [1] | MIC [2] | MIC [3] | MIC [4] | MIC [5] | MIC [6] | MIC [7] | MIC [8] | MIC [9] | MIC [10] | MIC [11] |
| --- | --- | --- | --- | --- | --- | --- | --- | --- | --- | --- | --- |
| CC(C)C[C@H](C(=O)N[C@H]1C(=O)N[C@@H](CC(N)=O)C(=O)N[C@H]2C(=O)N[C@H]3C(=O)N[C@H](C(=O)N[C@H](C(=O)O)c4cc(O)cc(O)c4-c4cc3ccc4O)[C@H](O)c3ccc(c(Cl)c3)Oc3cc2cc(c3O[C@@H]2O[C@H](CO)[C@@H](O)[C@H](O)[C@H]2O[C@H]2C[C@](C)(N)[C@H](O)[C@H](C)O2)Oc2ccc(cc2Cl)[C@H]1O)N(C)CCC[S+](C)CC(O)COc1ccccc1.O=C([O-])C(F)(F)F (stereo partly specified) | 8 µg/mL | 2 µg/mL | > 128 µg/mL | 128 µg/mL | 64 µg/mL | 32 µg/mL | > 128 µg/mL | > 128 µg/mL | > 128 µg/mL | > 128 µg/mL | > 128 µg/mL |
| CN[C@H](CC(C)C)C(=O)N[C@H]1C(=O)N[C@@H](CC(N)=O)C(=O)N[C@H]2C(=O)N[C@H]3C(=O)N[C@H](C(=O)N[C@H](C(=O)NCCC[S+](C)CC(O)CCc4ccccc4)c4cc(O)cc(O)c4-c4cc3ccc4O)[C@H](O)c3ccc(c(Cl)c3)Oc3cc2cc(c3O[C@@H]2O[C@H](CO)[C@@H](O)[C@H](O)[C@H]2O[C@H]2C[C@](C)(N)[C@H](O)[C@H](C)O2)Oc2ccc(cc2Cl)[C@H]1O.O=C([O-])C(F)(F)F (stereo partly specified) | 2 µg/mL | 0.5 µg/mL | 32 µg/mL | 32 µg/mL | 32 µg/mL | 2 µg/mL | 32 µg/mL | > 128 µg/mL | > 128 µg/mL | 128 µg/mL | > 128 µg/mL |
| CN[C@H](CC(C)C)C(=O)N[C@H]1C(=O)N[C@@H](CC(N)=O)C(=O)N[C@H]2C(=O)N[C@H]3C(=O)N[C@H](C(=O)N[C@H](C(=O)O)c4cc(O)c(CNCCC[S+](C)C[C@@H](O)COc5ccccc5)c(O)c4-c4cc3ccc4O)[C@H](O)c3ccc(c(Cl)c3)Oc3cc2cc(c3O[C@@H]2O[C@H](CO)[C@@H](O)[C@H](O)[C@H]2O[C@H]2C[C@](C)(N)[C@H](O)[C@H](C)O2)Oc2ccc(cc2Cl)[C@H]1O.O=C([O-])C(F)(F)F (stereo partly specified) | 4 µg/mL | 0.5 µg/mL | > 128 µg/mL | 128 µg/mL | 2 µg/mL | 4 µg/mL | 16 µg/mL | > 128 µg/mL | 128 µg/mL | > 128 µg/mL | > 128 µg/mL |
| CN[C@H](CC(C)C)C(=O)N[C@H]1C(=O)N[C@@H](CC(N)=O)C(=O)N[C@H]2C(=O)N[C@H]3C(=O)N[C@H](C(=O)N[C@H](C(=O)O)c4cc(O)cc(O)c4-c4cc3ccc4O)[C@H](O)c3ccc(c(Cl)c3)Oc3cc2cc(c3O[C@@H]2O[C@H](CO)[C@@H](O)[C@H](O)[C@H]2O[C@H]2C[C@](C)(NCCC[S+](C)C[C@H](O)COc3ccccc3)[C@H](O)[C@H](C)O2)Oc2ccc(cc2Cl)[C@H]1O.O=C([O-])C(F)(F)F (stereo partly specified) | 1 µg/mL | 0.125 µg/mL | 16 µg/mL | 16 µg/mL | 8 µg/mL | 4 µg/mL | 128 µg/mL | > 128 µg/mL | 128 µg/mL | > 128 µg/mL | > 128 µg/mL |
| CN[C@H](CC(C)C)C(=O)N[C@H]1C(=O)N[C@@H](CC(N)=O)C(=O)N[C@H]2C(=O)N[C@H]3C(=O)N[C@H](C(=O)N[C@H](C(=O)NCCC[S+](C)CC(O)COc4ccc(C(F)(F)F)cc4)c4cc(O)cc(O)c4-c4cc3ccc4O)[C@H](O)c3ccc(c(Cl)c3)Oc3cc2cc(c3O[C@@H]2O[C@H](CO)[C@@H](O)[C@H](O)[C@H]2O[C@H]2C[C@](C)(N)[C@H](O)[C@H](C)O2)Oc2ccc(cc2Cl)[C@H]1O.O=C([O-])C(F)(F)F (stereo partly specified) | 1 µg/mL | ≤ 0.063 µg/mL | 16 µg/mL | 8 µg/mL | 8 µg/mL | 4 µg/mL | 32 µg/mL | 64 µg/mL | 32 µg/mL | 128 µg/mL | > 128 µg/mL |
| CN[C@H](CC(C)C)C(=O)N[C@H]1C(=O)N[C@@H](CC(N)=O)C(=O)N[C@H]2C(=O)N[C@H]3C(=O)N[C@H](C(=O)N[C@H](C(=O)NCCC[S+](C)C[C@H](O)COc4ccccc4)c4cc(O)cc(O)c4-c4cc3ccc4O)[C@H](O)c3ccc(c(Cl)c3)Oc3cc2cc(c3O[C@@H]2O[C@H](CO)[C@@H](O)[C@H](O)[C@H]2O[C@H]2C[C@](C)(N)[C@H](O)[C@H](C)O2)Oc2ccc(cc2Cl)[C@H]1O.O=C([O-])C(F)(F)F (stereo partly specified) | 1 µg/mL | 0.25 µg/mL | 32 µg/mL | 16 µg/mL | 16 µg/mL | 4 µg/mL | 16 µg/mL | > 128 µg/mL | 64 µg/mL | 128 µg/mL | > 128 µg/mL |
| CCCCCCCCCC(=O)N[C@@H](Cc1c[nH]c2ccccc12)C(=O)N[C@@H](CC(N)=O)C(=O)N[C@@H](CC(=O)O)C(=O)N[C@@H]1C(=O)NCC(=O)N[C@@H](CCCN)C(=O)N[C@@H](CC(=O)O)C(=O)N[C@H](C)C(=O)N[C@@H](CC(=O)O)C(=O)NCC(=O)N[C@H](CO)C(=O)N[C@@H]([C@@H](C)CC(=O)O)C(=O)N[C@@H](CC(=O)c2ccccc2N)C(=O)O[C@@H]1C | 4 µg/mL (≈ 2.47 µM) | 1 µg/mL (≈ 0.617 µM) | 8 µg/mL (≈ 4.94 µM) | 8 µg/mL (≈ 4.94 µM) | 8 µg/mL (≈ 4.94 µM) | 4 µg/mL (≈ 2.47 µM) | – | – | – | – | – |
| CN[C@H](CC(C)C)C(=O)N[C@H]1C(=O)N[C@@H](CC(N)=O)C(=O)N[C@H]2C(=O)N[C@H]3C(=O)N[C@H](C(=O)N[C@H](C(=O)O)c4cc(O)c(CNCCCSCC(O)COc5ccc(-c6ccc(C(F)(F)F)cc6)cc5)c(O)c4-c4cc3ccc4O)[C@H](O)c3ccc(c(Cl)c3)Oc3cc2cc(c3O[C@@H]2O[C@H](CO)[C@@H](O)[C@H](O)[C@H]2O[C@H]2C[C@](C)(N)[C@H](O)[C@H](C)O2)Oc2ccc(cc2Cl)[C@H]1O (stereo partly specified) | 1 µg/mL (≈ 0.541 µM) | 0.125 µg/mL (≈ 0.0677 µM) | 4 µg/mL (≈ 2.17 µM) | 2 µg/mL (≈ 1.08 µM) | 4 µg/mL (≈ 2.17 µM) | 2 µg/mL (≈ 1.08 µM) | > 128 µg/mL | 128 µg/mL (≈ 69.3 µM) | 32 µg/mL (≈ 17.3 µM) | > 128 µg/mL | > 128 µg/mL |
| CN[C@H](CC(C)C)C(=O)N[C@H]1C(=O)N[C@@H](CC(N)=O)C(=O)N[C@H]2C(=O)N[C@H]3C(=O)N[C@H](C(=O)N[C@H](C(=O)NCCC[S+](C)C[C@@H](O)COc4ccccc4)c4cc(O)cc(O)c4-c4cc3ccc4O)[C@H](O)c3ccc(c(Cl)c3)Oc3cc2cc(c3O[C@@H]2O[C@H](CO)[C@@H](O)[C@H](O)[C@H]2O[C@H]2C[C@](C)(N)[C@H](O)[C@H](C)O2)Oc2ccc(cc2Cl)[C@H]1O.O=C([O-])C(F)(F)F (stereo partly specified) | 2 µg/mL | 0.25 µg/mL | 32 µg/mL | 16 µg/mL | 16 µg/mL | 2 µg/mL | 16 µg/mL | > 128 µg/mL | 64 µg/mL | > 128 µg/mL | > 128 µg/mL |
| C[C@@H](O)[C@H]1C(=O)N2C(C(=O)O)=C(S[C@@H]3CN[C@H](C(=O)N(C)C)C3)[C@H](C)[C@H]12 [MEROPENEM] | – | – | – | – | – | – | – | > 128 µg/mL | 2 µg/mL (≈ 5.22 µM) | – | – |
| CC(C)CCCCC(=O)N[C@@H](CCN)C(=O)N[C@H](C(=O)N[C@@H](CCN)C(=O)N[C@H]1CCNC(=O)[C@H]([C@@H](C)O)NC(=O)[C@H](CCN)NC(=O)[C@H](CCN)NC(=O)[C@H](CC(C)C)NC(=O)[C@@H](Cc2ccccc2)NC(=O)[C@H](CCN)NC1=O)[C@@H](C)O.CC[C@H](C)CCCCC(=O)N[C@@H](CCN)C(=O)N[C@H](C(=O)N[C@@H](CCN)C(=O)N[C@H]1CCNC(=O)[C@H]([C@@H](C)O)NC(=O)[C@H](CCN)NC(=O)[C@H](CCN)NC(=O)[C@H](CC(C)C)NC(=O)[C@@H](Cc2ccccc2)NC(=O)[C@H](CCN)NC1=O)[C@@H](C)O (X1-[Dab]T[Dab][Dab][Dab][dF]L[Dab][Dab]T; lactam 4-C) | – | – | – | – | – | – | 0.125 µg/mL | 0.125 µg/mL | 0.125 µg/mL | 0.5 µg/mL | ≤ 0.063 µg/mL |
| CC(=O)NC[C@H]1CN(c2ccc(N3CCOCC3)c(F)c2)C(=O)O1 [LINEZOLID] | – | 1 µg/mL (≈ 2.96 µM) | 1 µg/mL (≈ 2.96 µM) | 2 µg/mL (≈ 5.93 µM) | 2 µg/mL (≈ 5.93 µM) | 2 µg/mL (≈ 5.93 µM) | 128 µg/mL (≈ 379 µM) | 128 µg/mL (≈ 379 µM) | 128 µg/mL (≈ 379 µM) | 128 µg/mL (≈ 379 µM) | > 128 µg/mL |
